Results taken from patent publication US6838574B1, “Dicarba-closo-dodecarborane derivatives” (Institute of Medicinal Molecular Design, Inc., priority 1999, dated 2005).

How the values were obtained:
Format in all cases: cell-based
[1] = molecular target: T1, rat estrogen receptor (pCI-rER α) (Rattus norvegicus, UniProt P06211); test: Antiestrogenic activity, luciferase reporter gene assay with coexisting β-estradiol; conditions: for IC50: coexisting β-estradiol 1 × 10^−9M
T1 construct: expressed in transfected cells; host or cells: COS-1 cells
T1 sequence (P06211 1-600): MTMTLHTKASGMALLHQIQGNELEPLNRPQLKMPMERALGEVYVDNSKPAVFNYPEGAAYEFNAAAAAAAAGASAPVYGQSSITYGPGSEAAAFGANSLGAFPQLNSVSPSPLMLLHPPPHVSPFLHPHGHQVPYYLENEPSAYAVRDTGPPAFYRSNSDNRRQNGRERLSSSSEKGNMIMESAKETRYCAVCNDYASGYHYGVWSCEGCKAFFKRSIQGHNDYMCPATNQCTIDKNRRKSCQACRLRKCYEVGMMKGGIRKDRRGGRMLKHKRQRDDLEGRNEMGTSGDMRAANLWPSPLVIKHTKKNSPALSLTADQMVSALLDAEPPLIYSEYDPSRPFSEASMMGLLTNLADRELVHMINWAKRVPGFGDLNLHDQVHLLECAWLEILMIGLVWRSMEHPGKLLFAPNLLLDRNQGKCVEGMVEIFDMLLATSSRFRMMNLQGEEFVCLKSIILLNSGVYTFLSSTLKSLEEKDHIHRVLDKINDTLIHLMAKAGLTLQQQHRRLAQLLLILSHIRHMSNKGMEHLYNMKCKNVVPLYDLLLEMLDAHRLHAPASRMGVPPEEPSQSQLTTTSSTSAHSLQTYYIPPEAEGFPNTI
Method: As estrogenic activity, estrogen receptor-dependent transcriptional activation abilities of the test compounds were determined by the r porter gene assay using luciferase gene. COS-1 cells were cultured using a DMEM medium containing an antibiotics and 5% bovine fetal serum in the wells of 24 well plates (cell density: 5 to 6×10^4/well) at 37° C. for one night under 5% carbon dioxide. On the next day, the medium was changed to DMEM medium not containing Phenol Red. Using gene introducing reagent Tfx-20 (Promega), reporter plasmid EREx3-pGL-TK, in which rat estrogen receptor expression plasmid pCI-rER α and an estrogen responsive sequence were placed upstream of the luciferase gene, and β-galactosidase expression plasmid pCMV β used as an internal standard were introduced into cells. The cells were cultured for 2 h, and the medium was changed to DMEM not containing Phenol Red but containing active charcoal-treated serum.
The culture was added with each test compound dissolved in ethanol at various concentrations (final ethanol concentration at 0.5%) and then cultivation was continued at 37° C. for one night under 5% carbon dioxide. On the next day, the cells were lysed and enzymatic activity of luciferase expressed was measured by using a chemiluminometer. The values were standardized based on galactocidase enzymatic activity, and then compared with the values obtained by experiments using no test compound and used as values of activity at various concentrations. […] The estrogenic activities in the table are shown as concentrations for 50% activity (EC50 values) which give 50% activities relative to luciferase activity regarded as 100 that is expressed by treatment with the control compound β-estradiol at 10 nM. Each compound tested in this experiment has a high estrogenic activity.
As antiestrogenic activities, estrogen receptor-dependent transcriptional activation abilities of the test compounds were measured by the reporter gene assay using luciferase gene in the same manner as the estrogen activity measurement. In Table 7, antiestrogenic activities of test compounds are indicated as IC50 values as 50% inhibitory concentrations relative to the luciferase activity regarded as 100 which is expressed by β-estradiol at 1 nM coexisting in the experimental system. Each compound tested in this experiment has antiestrogenic activity.

[2] = tested on: human promyelocytic leukemia cell strain HL-60; test: HL-60 differentiation with coexisting differentiation inducer Am80 (anti-differentiation activity); conditions: for percentage of differentiated cells, coexisting compound Am80: coexisting Am80 3.3 × 10^−10M, control 55
[3] = tested on: human promyelocytic leukemia cell strain HL-60; test: HL-60 differentiation with coexisting HX630 (enhancer of differentiation inducers); conditions: for percentage of differentiated cells, coexisting compound HX630: coexisting HX630 1 × 10^−7M, control <10; for differentiation inducing activity with HX630 (in words): coexisting HX630 (Table 3)
[4] = tested on: human promyelocytic leukemia cell strain HL-60; test: HL-60 differentiation induction, test compound alone; conditions: for percentage of differentiated cells, no coexisting compound: HL-60, 4 days, control <10
Method: Inhibitory activity against proliferation of human promyelocytic leukemia cell strain HL-60 was evaluated an index of anti-leukemia activity. Subcultured HL-60 cells were seeded with the initial cell number of 8×10^4 cells/ml in the RPMI 1640 medium containing bovine fetal serum and an antibiotics. Each test compound was added at various concentrations and the mixture was cultured at 37° C. Four days later, cell number was counted. Anti-leukemia activity of each test compound was shown in the tables as percentage values of differentiated cells, which cells were not differentiated in the absence of the test drug, […] observation and NBT reducing ability of the cells as indexes.

[5] = test compound 1 μM, morphology and NBT reducing ability

## 1-(2-hydroxyphenyl)-12-(3-dimethylaminoethoxyphenyl)-1,12-dicarba-closo-dodecaborane [BR172]
[1]
  IC50: 0.6 µM

## 1-(3-hydroxyphenyl)-2-(3-dimethylaminoethoxyphenyl)-1,2-dicarba-closo-dodecaborane [BR372]
[1]
  IC50: 0.2 µM

## 1-(3-hydroxyphenyl)-7-(3-dimethylaminoethoxyphenyl)-1,7-dicarba-closo-dodecaborane [BR272]
[1]
  IC50: 0.5 µM

## 1-(4-hydroxyphenyl)-2(4-dimethylamino-ethoxyphenyl)-1,2-dicarba-closo-dodecaborane [BR362]
[1]; coexisting β-estradiol 1 nM, tamoxifen as control
  antiestrogenic activity (in words): strong activity comparable to that of antiestrogenic drug tamoxifen
[1]
  IC50: 0.03 µM

## 1-(4-hydroxyphenyl)-7-(4-dimethylaminoethoxyphenyl)-1,7-dicarba-closo-dodecaborane [BR262]
[1]
  IC50: 0.2 µM

## 1-(4-hydroxyphenyl)-12-(4-dimethylaminoethoxyphenyl)-1,12-dicarba-closo-dodecaborane [BR162]
[1]
  IC50: 0.01 µM

## 4-[2-(1,2-dicarba-closo-dododecaboran-1-yl)-(E)-ethenylcarboxamide]benzoic acid [BR110]
[2]; HL-60
  percentage of differentiated cells, coexisting compound Am80: 60%
[3]; HL-60
  percentage of differentiated cells, coexisting compound HX630: 48%
[3]
  differentiation inducing activity with HX630 (in words): differentiation inducing activities
[4]; [5]
  percentage of differentiated cells, no coexisting compound: 12%

## 4-[3-(2-methyl-1,2-dicarba-closo-dodecaboran-1-yl)phenylcarbamoyl]benzoic acid [BR251]
[2]; HL-60
  percentage of differentiated cells, coexisting compound Am80: 55%
[3]; HL-60
  percentage of differentiated cells, coexisting compound HX630: 77%
[3]
  differentiation inducing activity with HX630 (in words): differentiation inducing activities
[4]; [5]
  percentage of differentiated cells, no coexisting compound: 8%

## 4-[4-(2-methyl-1,2-dicarba-closo-dodecaboran-1-yl) phenylamino]benzoic acid [BR401]
[2]; HL-60
  percentage of differentiated cells, coexisting compound Am80: 60%
[3]; HL-60
  percentage of differentiated cells, coexisting compound HX630: 75%
[4]; 0.01 μM test compound, HL-60
  differentiation inducing activity at low concentration (in words): activities were maintained
[4]; test compound 0.01 μM
  percentage of differentiated cells, no coexisting compound: 26%
[4]; [5]
  percentage of differentiated cells, no coexisting compound: 70%
[4]; test compound alone, HL-60
  differentiation inducing activity (in words): strong differentiation inducing activities

## 4-[4-(2-methyl-1,2-dicarba-closo-dodecaboran-1-yl)-phenylcarbamoyl]benzoic acid [BR201]
[2]; HL-60
  percentage of differentiated cells, coexisting compound Am80: 5%
[2]; coexisting Am80 (Table 2)
  anti-differentiation activity (in words): strong anti-differentiation activity
[3]; HL-60
  percentage of differentiated cells, coexisting compound HX630: 12%
[4]; [5]
  percentage of differentiated cells, no coexisting compound: 11%

## 4-[[3-(1,2-Dicarba-closo-dodecaboran-1-yl)phenyl]carboxamide]benzoic acid [BR350]
[2]; HL-60
  percentage of differentiated cells, coexisting compound Am80: 60%
[3]; HL-60
  percentage of differentiated cells, coexisting compound HX630: 48%
[3]
  differentiation inducing activity with HX630 (in words): differentiation inducing activities
[4]; [5]
  percentage of differentiated cells, no coexisting compound: 11%

## 4-{N-methyl-[2-methyl-4-(2-methyl-1,2-dicarba-closo-dodecaboran-1-yl)]phenylamino}benzoic acid [BR431]
[2]; HL-60
  percentage of differentiated cells, coexisting compound Am80: 55%
[3]; HL-60
  percentage of differentiated cells, coexisting compound HX630: 12%
[4]; [5]
  percentage of differentiated cells, no coexisting compound: 10%

## 4-{[4-(1,2-dicarba-closo-dodecaboran-1-yl)phenyl]carboxamide}benzoic acid [BR300]
[2]; HL-60
  percentage of differentiated cells, coexisting compound Am80: 37%
[3]; HL-60
  percentage of differentiated cells, coexisting compound HX630: 8%
[4]; [5]
  percentage of differentiated cells, no coexisting compound: 6%

## CC1(C)CCC(C)(C)c2cc(NC(=O)c3ccc(C(=O)O)cc3)ccc21 [Am80, 4-[(5,6,7,8-tetrahydro-5,5,8,8-tetramethyl-2-naphthalenyl)carbamoyl]benzoic acid, reference compound]
[2]; Am80 3.3 × 10^−10M alone, HL-60
  percentage of differentiated cells, control (Am80 without test compound): Am80 3.3 × 10^−10M (control: 55) %

## CC1(C)CCC(C)(C)c2cc3c(cc21)Sc1ccccc1N=C3c1ccc(C(=O)O)cc1 [HX630, 4-[2,3-(2,5-dimethyl-2,5-hexano)dibenzo-[b,f]-[1,4]thiazepin-11-yl]benzoic acid, reference compound]
[3]; HX630 1 × 10^−7M alone, HL-60
  percentage of differentiated cells, control (HX630 without test compound): HX630 1 × 10^−7M (control: <10) %
